From patent US20060035889A1, “Treatment for methamphetamine addiction and reduction of methamphetamine use using serotonin antagonists” (priority 2004, published 2006)

Experiments:
ventral pallidal neurons = test: Electrophysiology of ventral pallidal neurons, i.v. METH dose-response in chloral hydrate-anesthetized rats; type: in vivo, rat
Protocol: Based on the biochemical results and because the ventral pallidum contains one of the highest concentrations of 5-HT in the brain, electrophysiological evaluations of this region in rats behaviorally sensitized to METH were conducted (with a 5-day once daily treatment of 2.5 mg/kg). The acute challenge was intravenously administered METH (via a tail vein cannula) as previously used by T. C. Napier's lab ^e.g., [34] where the drug is given in a cumulative dosing fashion such that each dose, administered in 2 min-intervals, essentially doubles the previous dose. METH was tested using a range of 0.06-4.0 mg/kg in saline vehicle. […] Moreover, this approach establishes if systemic administration of METH, in doses that include those producing behavioral sensitization, are sufficient promote sensitized cellular responding and thus allows for direct comparisons of cellular responding to behavioral outcomes. After a 3-day withdrawal, the ability of intravenously administered METH or 1-(2,5-dimethoxy-4-iodophenyl)-2-aminopropane (DOI) to increase ventral pallidal cell firing was enhanced in chloral hydrate-anesthetized rats, as shown by a leftward shift in the dose-response curve with a […] and an increase in response efficacy for both agonists (FIG. 16) and this occurred without any changes in the portion of neurons showing a rate increase or decrease to the acute METH challenge.
Electrophysiological assessment of the ventral pallidum was also conducted 30 days after repeated METH. […] For each experiment, an i.v. METH dose-response curve (METH was tested using a range of 0.06-2.0 mg/kg in saline vehicle) was generated for one ventral pallidal neuron per rat at 30 days withdrawal from repeated METH. Based on the analysis of curves where there was an excitatory effect of i.v. METH on ventral pallidal neurons (171 animals), there was a diminished excitatory effect of i.v. METH in the ventral pallidum of rats that were pretreated with METH only. This is illustrated by both the curves and corresponding Emax data in FIG. 17. This decrease only at long-term withdrawal mirrors the reduction seen in pallidal pCREB only after 14, but not at 3 day withdrawal from repeated METH (see Example III).

METH-conditioned rats = test: METH-induced conditioned place preference (CPP) with simultaneous motor sensitization; type: in vivo, rat; conditions: single home cage injection 0.03, 0.1 or 1.0 mg/kg SDZ SER 082 24 h before test (FIG. 13)
Excerpt: The CPP box (Accuscan, Columbus, Ohio) consists of three Plexiglas compartments, each with distinct visual and tactile cues (on one side, patterned floor with object attached and horizontally striped wall; on the opposite side, smooth floor with no object and vertically striped walls; center—uniformly white floor and walls). The center compartment can be separated from the left and right compartments by removable guillotine doors. Motor activity in three dimensional space, and time spent, in each compartment is detected by two sets of photobeams set at different heights from the floor. Drug conditioning is performed by administering METH to the rat while it is in one compartment, and on the alternating day, saline is administered while the rat is confined to the opposite compartment. Confinement was achieved by blocking access to other compartments using the guillotine door. The center compartment is not seen by the rat during conditioning, and all conditioning sessions last for 45 min.
The inventors have determined that the number of METH-pairings, and the dose of METH, dictate the strength of the drug-environment association (i.e., the magnitude of salience attribution). The test for CPP is determined in a METH-free state (i.e., at least 48 hr after that last METH pairing), at which time the rats are placed in the center compartment and allowed free access to all compartments for 30 min, and the time spent in each compartment is the index of preference. The inventors have determined that the number of METH-pairings, and the dose of METH, dictate the strength of the drug-environment association (i.e., the magnitude of salience attribution) and thus the amount of time spent in the compartment previously paired with METH (FIG. 7), as well as persistence of this effect (i.e., how long it lasts; FIG. 8A). METH-induced motor sensitization can be assessed in several ways, including assessing the capacity of the rat to express an enhanced motor response to an acute METH challenge (FIGS. 9 & 10A).
To efficiently apply this approach to testing of 5-HT2A/2C antagonists, we determined that single pairing protocols of the CPP paradigm can be used to predict efficacy outcomes of 5-HT2A/2C antagonists in long-term tests on these drugs evaluating their capacity to nullify the persistent enhanced salience induced by METH. […] Thus, these protocols should help predict the capacity of novel therapeutic targets to halt a common problem of drug relapse, i.e., the ability of re-exposure to drugs like METH to immediately reinstate their abuse.

5-HT1A = biological target: T1, 5-HT1A (Homo sapiens, UniProt P08908); conditions: read-out: receptor affinity (Ki) 5-HT1A; cited from earlier work
T1 sequence (P08908 1-422): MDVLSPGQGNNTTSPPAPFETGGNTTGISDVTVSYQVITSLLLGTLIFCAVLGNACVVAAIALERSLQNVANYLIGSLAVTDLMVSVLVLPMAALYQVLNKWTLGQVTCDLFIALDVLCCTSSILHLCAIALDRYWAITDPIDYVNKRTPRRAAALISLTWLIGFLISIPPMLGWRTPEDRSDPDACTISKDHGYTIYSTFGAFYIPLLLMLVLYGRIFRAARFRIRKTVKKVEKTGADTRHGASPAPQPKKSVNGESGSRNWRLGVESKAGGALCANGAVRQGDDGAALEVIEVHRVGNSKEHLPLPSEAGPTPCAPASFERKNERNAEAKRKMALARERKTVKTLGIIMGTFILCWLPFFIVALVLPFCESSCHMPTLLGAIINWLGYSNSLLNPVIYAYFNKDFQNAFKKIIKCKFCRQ

5-HT2A = 5-HT2A (Homo sapiens, UniProt P28223); conditions: read-out: receptor affinity (Ki) 5-HT2A; cited from earlier work
5-HT2C = biological target: T2, 5-HT2C (Homo sapiens, UniProt P28335); conditions: read-out: receptor affinity (Ki) 5-HT2C; cited from earlier work
T2 sequence (P28335 33-458): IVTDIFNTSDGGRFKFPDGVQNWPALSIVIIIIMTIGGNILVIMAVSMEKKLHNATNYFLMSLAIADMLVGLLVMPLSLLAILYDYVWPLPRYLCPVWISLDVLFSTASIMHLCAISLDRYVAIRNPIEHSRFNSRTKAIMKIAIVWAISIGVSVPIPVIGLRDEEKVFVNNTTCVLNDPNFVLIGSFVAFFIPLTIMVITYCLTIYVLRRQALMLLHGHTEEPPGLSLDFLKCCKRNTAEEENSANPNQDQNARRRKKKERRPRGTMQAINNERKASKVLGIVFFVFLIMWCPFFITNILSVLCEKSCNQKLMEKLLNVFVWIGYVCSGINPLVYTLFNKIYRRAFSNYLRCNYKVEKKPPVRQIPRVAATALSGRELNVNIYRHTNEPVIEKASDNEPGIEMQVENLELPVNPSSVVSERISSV

5-HT3 = biological target: T3, 5-HT3 (Homo sapiens, UniProt P46098); conditions: read-out: receptor affinity (Ki) 5-HT3; cited from earlier work
T3 sequence (P46098 24-478): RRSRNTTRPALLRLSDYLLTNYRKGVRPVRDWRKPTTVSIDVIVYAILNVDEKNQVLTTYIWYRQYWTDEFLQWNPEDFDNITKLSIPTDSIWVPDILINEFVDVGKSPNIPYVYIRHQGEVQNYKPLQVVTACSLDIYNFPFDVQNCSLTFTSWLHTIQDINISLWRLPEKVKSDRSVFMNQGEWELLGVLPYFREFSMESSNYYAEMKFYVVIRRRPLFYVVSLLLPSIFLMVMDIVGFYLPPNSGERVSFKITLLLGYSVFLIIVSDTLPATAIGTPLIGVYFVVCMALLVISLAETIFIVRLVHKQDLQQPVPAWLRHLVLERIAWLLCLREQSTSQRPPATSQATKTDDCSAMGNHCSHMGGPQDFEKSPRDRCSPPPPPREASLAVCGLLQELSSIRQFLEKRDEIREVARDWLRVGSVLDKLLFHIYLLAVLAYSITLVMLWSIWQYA

D1 = D1 (Homo sapiens, UniProt P21728); conditions: read-out: receptor affinity (Ki) D1; cited from earlier work
D2 = D2 (Homo sapiens, UniProt P14416); conditions: read-out: receptor affinity (Ki) D2; cited from earlier work
a = conditions: read-out: receptor affinity (Ki) a; cited from earlier work
[1] = test system: cocaine seeking behaviors; conditions: rats, cited from earlier work; for maintenance of cocaine self-administration: 0.25-1 mg/kg, cocaine 0.5 mg/kg/infusion iv
METH-sensitized rats = test: Reversal of METH-induced behavioral sensitization by 5-HT2A/2C antagonists (motor activity after acute METH challenge); type: in vivo, rat; conditions: ketanserin 1 mg/kg once daily M-F 3 weeks; 1 mg/kg METH challenge w/d day 30/31
Excerpt: Automation of observational evaluations was accomplished using computerized small animal monitors (AccuScan Instr. Inc., Columbus, Ohio). […] One feature of drug-induced behavioral sensitization is heterogeneity of motor responses and the AccuScan monitors quantify numerous behavioral indices. This is a critical point for the motor profile is exquisitely related to METH dose, the drug history of the rat and observation time. After 3- or 31-days of withdrawal from repeated METH injections, rats were allowed to achieve baseline motor activity with a 30 min habituation period, challenged with 1 mg/kg sc METH and monitored for 90 min.
Multiple 5-HT2A/2C antagonists with differing pharmacological profiles were tested for their ability to ameliorate METH-induced behavioral sensitization when administered after sensitization has developed. […] The doses were selected based on the antagonists' ability to block 5-HT2A- and 5-HT2C-mediated activity and their pharmacokinetic profiles.

[2] = test system: cocaine-induced behavioral sensitization; conditions: given in acute withdrawal period from cocaine dosing; cited from earlier work

Chain of 5-HT2A (P28223 whole entry, species assumed): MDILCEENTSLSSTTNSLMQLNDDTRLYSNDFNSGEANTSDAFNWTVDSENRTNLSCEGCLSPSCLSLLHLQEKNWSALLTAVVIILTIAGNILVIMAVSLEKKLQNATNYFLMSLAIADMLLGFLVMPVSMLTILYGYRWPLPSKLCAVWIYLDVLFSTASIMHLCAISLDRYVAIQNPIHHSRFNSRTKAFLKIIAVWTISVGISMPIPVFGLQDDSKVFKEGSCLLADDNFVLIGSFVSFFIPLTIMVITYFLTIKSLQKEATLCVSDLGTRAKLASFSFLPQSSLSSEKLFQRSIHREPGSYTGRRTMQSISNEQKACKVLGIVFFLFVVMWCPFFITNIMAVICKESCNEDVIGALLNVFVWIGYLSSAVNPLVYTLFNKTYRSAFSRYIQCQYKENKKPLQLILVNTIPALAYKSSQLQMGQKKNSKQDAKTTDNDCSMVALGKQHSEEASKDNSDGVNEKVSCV
Chain of D2 (P14416 whole entry): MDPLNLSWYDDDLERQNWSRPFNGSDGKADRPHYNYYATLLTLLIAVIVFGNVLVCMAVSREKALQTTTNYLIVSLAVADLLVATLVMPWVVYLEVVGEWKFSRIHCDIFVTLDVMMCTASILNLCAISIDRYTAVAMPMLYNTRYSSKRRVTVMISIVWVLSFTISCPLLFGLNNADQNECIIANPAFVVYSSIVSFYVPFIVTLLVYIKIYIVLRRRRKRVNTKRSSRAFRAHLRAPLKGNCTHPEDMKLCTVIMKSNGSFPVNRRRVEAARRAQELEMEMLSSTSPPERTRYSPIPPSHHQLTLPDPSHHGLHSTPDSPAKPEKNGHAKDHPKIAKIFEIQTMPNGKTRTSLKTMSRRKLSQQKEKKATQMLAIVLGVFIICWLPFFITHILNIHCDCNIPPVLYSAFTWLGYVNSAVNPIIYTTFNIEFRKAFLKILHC
Chain of D1 (P21728 whole entry): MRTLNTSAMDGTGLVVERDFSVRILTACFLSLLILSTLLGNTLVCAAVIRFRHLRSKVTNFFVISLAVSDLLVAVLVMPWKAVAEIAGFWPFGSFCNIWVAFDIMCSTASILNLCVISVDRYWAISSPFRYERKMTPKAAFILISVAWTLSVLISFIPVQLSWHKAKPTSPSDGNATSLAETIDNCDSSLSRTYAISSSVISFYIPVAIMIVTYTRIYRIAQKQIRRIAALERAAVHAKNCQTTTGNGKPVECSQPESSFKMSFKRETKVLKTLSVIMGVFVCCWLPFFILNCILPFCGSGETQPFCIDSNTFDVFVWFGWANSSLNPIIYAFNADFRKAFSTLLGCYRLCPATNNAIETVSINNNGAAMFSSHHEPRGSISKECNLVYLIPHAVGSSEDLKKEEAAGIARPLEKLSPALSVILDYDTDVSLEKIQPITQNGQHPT

CN[C@@H](C)Cc1ccccc1 [METH, Methamphetamine]
Emax of Firing Rate Increases of Acute Meth (ventral pallidal neurons; repeated METH days 1-5, then vehicle, P < 0.05 vs saline + vehicle): 161% ± 16% (n = 11)

CN1CCC2CN3CCc4cccc(c43)C2C1 (stereo not drawn) [SDZ SER 082, 4,5,7a,8,9,10,11,11 a,-octahydro-7H-10-methylindolo[1,7,bc][2,6]-napthyridine]
METH-induced CPP after single pairing of 1.0 METH (METH-conditioned rats): reverses METH-induced CPP in a dose-dependent fashion | Ki (5-HT1A): 800 nM | Ki (5-HT2A): 600 nM | Ki (5-HT2C): 15 nM | Ki (5-HT3): > 1000 nM | Ki (D1): > 1000 nM | Ki (D2): > 1000 nM | Ki (a): > 1000 nM | maintenance of cocaine self-administration [1]: Neither SR 46349B (0.25-1 mg/kg) nor SDZ SER 082 (0.25-1 mg/kg) altered | cue- and cocaine priming-induced reinstatement ([1]; cocaine priming 10 mg/kg ip or cue): failed to alter

CN(C)CCO/N=C(/C=C/c1ccc(O)cc1)c1ccccc1F.CN(C)CCO/N=C(/C=C/c1ccc(O)cc1)c1ccccc1F.O=C(O)/C=C/C(=O)O [SR 46349B]
maintenance of cocaine self-administration [1]: Neither SR 46349B (0.25-1 mg/kg) nor SDZ SER 082 (0.25-1 mg/kg) altered

O=C(c1ccc(F)cc1)C1CCN(CCn2c(=O)[nH]c3ccccc3c2=O)CC1 [ketanserin]
effect on horizontal activity and vertical movements in METH-pretreated group (METH-sensitized rats): appeared to potentiate the effect | locomotor effects on saline-pretreated animals (acute METH challenge) (METH-sensitized rats): did not produce any locomotor effects | Emax of Firing Rate Increases of Acute Meth (ventral pallidal neurons; METH days 1-5, then antagonist, tested 31 days after last METH): 177% ± 18% (n = 4) | established behavioral sensitization to cocaine [2]: reverse the established behavioral sensitization

CN1CCN2c3ccccc3Cc3ccccc3C2C1 (stereo not drawn) [mianserin]
established behavioral sensitization to cocaine [2]: reverse the established behavioral sensitization

Cc1nccn1CC1CCc2c(c3ccccc3n2C)C1=O (stereo not drawn) [ondansetron]
established behavioral sensitization to cocaine [2]: reverse the established behavioral sensitization
